# Assay results taken from patent US20050037946A1, “Methods and compositions for treating cardiovascular disease using 1722, 10280, 59917, 85553, 10653, 9235, 21668, 17794, 2210, 6169, 10102, 21061, 17662, 1468, 12282, 6350, 9035, 1820, 23652, 7301, 8925, 8701, 3533, 9462, 9123, 12788, 17729, 65552, 1261, 21476, 33770, 9380, 2569654, 33556, 53656, …” (Millennium Pharmaceuticals, Inc., priority 2003, published 2005).
# Assays:
# [1] = humans; cited from earlier work
# 9035 mRNA = 9035 mRNA in cultured human monocytes and macrophages (TaqMan); format: cell-based; settings: 18 hours of stimulation
# From the text: (§1) This example describes the TaqMan™ procedure. The Taqman™ procedure is a quantitative, reverse transcription PCR-based approach for detecting mRNA. The RT-PCR reaction exploits the 5′ nuclease activity of AmpliTaq Gold™ DNA Polymerase to cleave a TaqMan™ probe during PCR. Briefly, cDNA was generated from the samples of interest, e.g., heart, kidney, liver, skeletal muscle, and various vessels, and used as the starting material for PCR amplification. In addition to the 5′ and 3′ gene-specific primers, a gene-specific oligonucleotide probe (complementary to the region being amplified) was included in the reaction (i.e., the Taqman™ probe). […]
# (§2) During the PCR reaction, cleavage of the probe separates the reporter dye and the quencher dye, resulting in increased fluorescence of the reporter. Accumulation of PCR products is detected directly by monitoring the increase in fluorescence of the reporter dye. When the probe is intact, the proximity of the reporter dye to the quencher dye results in suppression of the reporter fluorescence. […]
# 33556 mRNA = 33556 mRNA in cultured human macrophages (TaqMan); format: cell-based; settings: 18h of stimulation
# From the text: as §1, §2
# [2] = tested on: serine/threonine kinase Akt; settings: primary human peripheral blood monocytes; cited from earlier work
# Syk = assay: 1673 (Syk) expression in monocytes and macrophages (TaqMan); format: cell-based; settings: monocytes or macrophages
# From the text: as §1, §2
# 12282 mRNA = 12282 mRNA in cultured human monocytes and macrophages (TaqMan); format: cell-based; settings: 18 hours of stimulation
# From the text: as §1, §2
# 261 mRNA = 261 mRNA in cultured human monocytes and macrophages (TaqMan); format: cell-based
# From the text: as §1, §2
# 1261 mRNA = 1261 mRNA in statically cultured or shear-stressed cells (TaqMan); format: cell-based
# From the text: This example describes the TaqMan™ procedure. The Taqman™ procedure is a quantitative, reverse transcription PCR-based approach for detecting mRNA. The RT-PCR reaction exploits the 5′ nuclease activity of AmpliTaq Gold™ DNA Polymerase to cleave a TaqMan™ probe during PCR. Briefly, cDNA was generated from the samples of interest, e.g., heart, kidney, liver, skeletal muscle, and various vessels, and used as the starting material for PCR amplification. In addition to the 5′ and 3′ gene-specific primers, a gene-specific oligonucleotide probe (complementary to the region being amplified) was included in the reaction (i.e., the Taqman™ probe). The TaqMan™ probe includes the oligonucleotide with a fluorescent reporter dye covalently linked to the 5′ end of the probe (such as FAM (6-carboxyfluorescein), TET (6-carboxy4,7,2′,7′-tetrachlorofluorescein), JOE (6-carboxy-4,5-dichloro-2,7-dimethoxyfluorescein), or VIC) and a quencher dye (TAMRA (6-carboxy-N,N,N′,N′-tetramethylrhodamine) at the 3′ end of the probe.
# During the PCR reaction, cleavage of the probe separates the reporter dye and the quencher dye, resulting in increased fluorescence of the reporter. Accumulation of PCR products is detected directly by monitoring the increase in fluorescence of the reporter dye. When the probe is intact, the proximity of the reporter dye to the quencher dye results in suppression of the reporter fluorescence. During PCR, if the target of interest is present, the probe specifically anneals between the forward and reverse primer sites. The 5′-3′ nucleolytic activity of the AmpliTaq™ Gold DNA Polymerase cleaves the probe between the reporter and the quencher only if the probe hybridizes to the target. The probe fragments are then displaced from the target, and polymerization of the strand continues. The 3′ end of the probe is blocked to prevent extension of the probe during PCR. […] RNA was prepared using the trizol method and treated with DNase to remove contaminating genomic DNA. cDNA was synthesized using standard techniques.
# 53656 mRNA = 53656 mRNA in livers of Marmosets (TaqMan); format: in vivo
# 6169 mRNA = 6169 mRNA in Marmoset livers (TaqMan); format: in vivo
# From the text: as §1, §2
# 8921 mRNA = 8921 mRNA expression in marmosets; format: in vivo
# isolated hepatocytes = settings: via the CCK-B receptor; cited from earlier work
# isolated rat arterioles = settings: compared to basal tone; cited from earlier work
# 966 mRNA = 966 mRNA in aortic arches of mice given captopril (TaqMan); format: in vivo; settings: given for 6 or 12 weeks
# From the text: as §1, §2
# 1510 mRNA = 1510 mRNA in aortic arches of ApoE knockout mice (TaqMan); format: in vivo; settings: relative to abdominal aorta, 12 weeks
# From the text: as §1, §2
# 13886 mRNA = 13886 mRNA in aortas of treated rats (TaqMan); format: in vivo; settings: seven days, vs vehicle treated controls, p<0.005 ANOVA
# From the text: as §1, §2
# coronary arteries = settings: disruption of microtubules; cited from earlier work
compound,measurement,setting,value
CC1=C(/C=C/C(C)=C/C=C/C(C)=C\C(=O)O)C(C)(C)CCC1 [13-cis retinoic acid],lipid profile,[1],"increase total cholesterol, ILDL-cholesterol, apoB and triglyceride levels and decrease HDL-cholesterol"
CC1=C(/C=C/C(C)=C\C=C\C(C)=C\C(=O)O)C(C)(C)CCC1 [9-cis retinoic acid],lipid profile,[1],"increase total cholesterol, ILDL-cholesterol, apoB and triglyceride levels and decrease HDL-cholesterol"
interferon gamma,9035 mRNA expression,9035 mRNA,upregulated
same,33556 mRNA expression,33556 mRNA,upregulated
same,phosphorylation of the serine/threonine kinase Akt,[2],induces
same,Syk expression,Syk,No apparent upregulation
same,12282 mRNA expression,12282 mRNA,upregulated
same,261 mRNA expression,261 mRNA,downregulated
VEGF,1261 expression in response to angiogenic/inflammatory stimuli,1261 mRNA,transient upregulation
same,"1261 mRNA expression, timecourse","1261 mRNA; 1 hour of treatment, statically cultured or shear-stressed cells",strong upregulation
same,1261 mRNA expression,1261 mRNA; VEGF individually,upregulated
COCc1c(C(C)C)nc(C(C)C)c(/C=C/[C@@H](O)C[C@@H](O)CC(=O)O)c1-c1ccc(F)cc1 [cerivastatin],53656 mRNA upregulated,53656 mRNA,1.4 fold
same,6169 mRNA upregulated,6169 mRNA,2.4 fold
same,increase in 8921 mRNA expression,8921 mRNA,1.4 fold
cholesystkinin-8 [CCK-8],reduction of triacylglycerol secretion,isolated hepatocytes,53%
CN[C@H]1CCc2cc(OC)c(OC)c(OC)c2-c2ccc(OC)c(=O)cc21 [demecolcine],vasoconstriction,isolated rat arterioles,32.7%
IL-1β,1261 expression in response to angiogenic/inflammatory stimuli,1261 mRNA,transient upregulation
C[C@H](CS)C(=O)N1CCC[C@H]1C(=O)O [captopril],upregulation of 966 mRNA in mice aortic arches,966 mRNA,inhibited
same,elevated expression of 1510 mRNA in aortic arches of ApoE knockout mice,1510 mRNA,blocked
COC(=O)[C@@H](N)CCCNC(=N)N[N+](=O)[O-] [L-NAME],expression of 13886 mRNA,13886 mRNA,significantly down-regulated
COC(=O)Nc1nc2ccc(C(=O)c3cccs3)cc2[nH]1 [nocodazole],vascular tension and intracellular calcium levels,coronary arteries,increases
same,vasoconstriction,isolated rat arterioles,29.6%
